Experimental data from US10759843B2, “Method and pharmaceutical composition for use in the treatment of cancer” (priority 2012, dated 2020).
Non-standard residues stand in square brackets, D forms with d. Residues, ends and D or L forms follow the SMILES beside them.

Columns and labels:
MEC-1 cells = assay: Localized CLL xenograft model (MEC-1 cells subcutaneously in NSG mice); assay type: in vivo; conditions: 400 μg intraperitoneally three times per week
Experimental: 3×10^6 MEC-1 cells were injected subcutaneously into NOD scid gamma (NSG) mice (Charles River). When the tumor volume reached 0.1 cm^3, mice were injected intraperitoneally three times per week with 4NIK or PKHB1 (400 μg in 200 μl PBS). Tumor size was measured every 2-3 days with a calliper and tumor volume, calculated using the formula (length×width^2)/2, was expressed as mm^3. Alternatively, at the end of treatment mice were injected into the sinus retro-orbital with XenoLight RediJect 2-DG-750 Probe (Caliper) to visualize tumor cell glucose uptake, which reflects cell proliferation. Fluorescence was measured by In vivo imaging system FX Pro (Kodak) and pictures were analysed with the Carestream MI software.

normal B-lymphocytes = assay: PCD (Annexin-V-FITC) in normal B-lymphocytes; assay type: cell-based, human
Description: After authorized consent forms fresh blood samples will be collected from CLL patients diagnosed according to classical morphological and immunophenotypic criteria at Pitié-Salpêtrière Hospital (Service d'Hématologie Biologique). Normal B lymphocytes will be obtained from EFS (Etablisement Français du Sang). The Institutional Ethics Committee at Pitie-Salpetriere Hospital approved the present study. Mononuclear cells were purified from blood samples using a standard Ficoll-Hypaque gradient, and B cells were positively or negatively selected by magnetic beads coupled to anti-CD19 monoclonal antibody (positive selection) or to anti-CD16, CD3, and CD14 monoclonal antibodies (negative depletion) (Miltenyi Biotech). No changes were found in the cell death response of positively or negatively selected cells. Purified B-lymphocytes were cultured in complete medium (RPMI 1640 medium supplemented with 10% fetal calf serum, 2 mM L-glutamine, and 100 U/ml penicillin-streptomycin). Unless specified, reagents were from Sigma-Aldrich. […]
(§1) We used Annexin V-FITC (BD Biosciences) for the assessment of phosphatidylserine (PS) exposure. […] Data were analyzed using FlowJo software (TreeStar).

[1] = Peptide stability in human serum, HPLC; assay type: in vitro ADME
Experimental: FIG. 8: 4N1K and PKHB1 peptides stability were evaluated in human serum at 37° C. for 6 h. The relative concentrations of the remaining soluble peptides were analyzed by HPLC, by the integration of the absorbance at 220 nm as a function of retention time.

[2] = tested on: B cells isolated from CLL patients; assay: PCD (phosphatidylserine exposure, Annexin-V-FITC, flow cytometry) in B cells from CLL patients; assay type: cell-based, human
Description: After authorized consent forms fresh blood samples will be collected from CLL patients diagnosed according to classical morphological and immunophenotypic criteria at Pitié-Salpêtrière Hospital (Service d'Hématologie Biologique). Normal B lymphocytes will be obtained from EFS (Etablisement Français du Sang). The Institutional Ethics Committee at Pitie-Salpetriere Hospital approved the present study. Mononuclear cells were purified from blood samples using a standard Ficoll-Hypaque gradient, and B cells were positively or negatively selected by magnetic beads coupled to anti-CD19 monoclonal antibody (positive selection) or to anti-CD16, CD3, and CD14 monoclonal antibodies (negative depletion) (Miltenyi Biotech). No changes were found in the cell death response of positively or negatively selected cells. Purified B-lymphocytes were cultured in complete medium (RPMI 1640 medium supplemented with 10% fetal calf serum, 2 mM L-glutamine, and 100 U/ml penicillin-streptomycin). Unless specified, reagents were from Sigma-Aldrich.
To induce cell death B-lymphocytes were cultured 1 h with the TSP-1 derived peptide 4N1K (300 μM; sequence KRFYVVMWKK, SEQ ID NO:1), the negative control peptide 4NGG (300 μM; sequence KRFYGGMWKK, SEQ ID NO:2), the newly developed peptide PKHB1 (150 μM; sequence (D)K-R-F-Y-[…]-M-W-(D)K) (formula I) or an anti-CD47 mAb (in soluble conditions or in immobilized precoated plates; 5 μg/ml; clone B6H12). Alternatively, B-cells were pre-treated for 30 min before the induction of cell death with the calcium chelator BAPTA-AM (20 μM), the caspase-inhibitor Z-VAD.fmk (50 μM).
(§2) We used Annexin V-FITC (BD Biosciences) for the assessment of phosphatidylserine (PS) exposure. Data analysis was carried out in a FACSCanto II (BD Biosciences) on the total cell population (10,000 cells). Data were analyzed using FlowJo software (TreeStar).

[3] = tested on: CD19^+/CD5^− (residual B-cells); assay: Cell death in residual B-cells of CLL patients (flow cytometry); assay type: cell-based, human; conditions: n=8 patients (FIG. 6C)
Experimental: FIG. 6A-D. FIG. 6(A) B cells isolated from CLL patients were left untreated (control) or cultured 1 h in the presence of 4N1K or the 4N1K-derivative peptide PKHB-1 at the indicated concentration. The percentage of cells that expose phosphatidylserine (measured with Annexin-V-FITC) was recorded and expressed as a plot. Data are the means of eight independent experiments. FIG. 6(B) In a similar experiment B-lymphocytes from 14 different CLL patients, including individuals with unmutated IGHV, complex karyotype and dysfunctional TP53, were left untreated (control) or cultured 1 h in the presence of 4N1K (300 μM) or the 4N1K-derivative peptide PKHB-1 (150 μM). PCD was measured by Annexin-V-FITC labelling in a flow cytometer. FIG. 6(C) Cell death was determined as described in A in 4N1K or PKHB1-treated CD19^+/CD5^− (residual B-cells) and CD19^+/CD5^+ B-lymphocytes (CLL cells) identified by flow cytometry from each CLL patient. Data are presented as the mean±s.d. (n=8 patients). FIG. 6(D) Cell death was measured by Annexin V-positive staining in 4N1K or PKHB1-treated CLL cells pre-incubated or not with the intracellular calcium chelator BAPTA-AM. Data are presented as the mean±S.D. (n=10 patients).
as §1

cancer cell lines = assay: PCD induction in cancer cell lines (whole panel of Table 1); assay type: cell-based; conditions: cancer cell lines of Table 1, Annexin V labeling
Experimental: as §2

primary cancer cells = assay: PCD induction in primary cancer cells (whole panel of Table 2); assay type: cell-based; conditions: primary cancer cells (Table 2)

Molecule	tumor growth compared to control mice (MEC-1 cells; NSG mice with MEC-1 tumors (FIG. 7))	tumor glucose uptake (2-DG) compared to control mice (MEC-1 cells; NSG mice with MEC-1 tumors (FIG. 7C))	cytotoxicity in normal B-lymphocytes (normal B-lymphocytes)	time over which stable in human serum ([1]; 37° C. (FIG. 8)) [h]	degradation in human serum ([1]; 37° C., 6 h, HPLC 220 nm (FIG. 8))	efficiency compared with 4N1K ([2]; B cells isolated from CLL patients, 1 h, indicated concentrations (FIG. 6A))	effect of pre-treatment with calcium chelator BAPTA-AM on peptide-mediated PCD ([2]; BAPTA-AM 20 μM before PCD induction (FIG. 5, FIG. 6D))	cell death of CD19^+/CD5^+ tumor cells ([2]; CD19^+/CD5^+ CLL cells, n=8 patients (FIG. 6C))	cell death of residual CD19^+/CD5^− B-lymphocytes [3]	cell death / caspase-independent PCD induction (in words) (cancer cell lines)	caspase-independent PCD induction (in words) (primary cancer cells)	PCD induction in CLL primary cells (in words) ([2]; soluble peptide or mAb (FIG. 1))
CSCC[C@H](NC(=O)[C@@H](NC(=O)[C@@H](NC(=O)[C@H](Cc1ccc(O)cc1)NC(=O)[C@H](Cc1ccccc1)NC(=O)[C@H](CCCNC(=N)N)NC(=O)[C@@H](N)CCCCN)C(C)C)C(C)C)C(=O)N[C@@H](Cc1c[nH]c2ccccc12)C(=O)N[C@@H](CCCCN)C(=O)N[C@H](CCCCN)C(=O)O [PKHB1, (D)K-R-F-Y-V-V-M-W-K-(D)] (H-KRFYVVMWK[dK]-OH)	reduction	reduction	not in normal B-lymphocytes	≥ 6	not degradated	better efficiency than the 4N1K peptide	significantly decreased	significantly killed	resistant			
KRFYGGMWKK [4NGG, negative soluble control peptide, 4N1K mutated in two amino acids, reference compound]										inefficient	inefficient	unable to induce PCD
